# Calls of active or inactive are those of the source. No cut-off for these calls is given here.
# System: Nucleic Acid
# Experiment: Binding affinity to […] DNA oligomer d(CGATATATCG)2 (unknown origin) minor groove assessed as association constant by NMR
# Format: nucleic-acid assay
row,Compound,Ka
1,CC(=O)Nc1cn(C)c(C(=O)Nc2cc(C(=O)Nc3nc(C(=O)NCCCN(C)C)c(C(C)C)s3)n(C)c2)n1,inactive
2,COc1cccc(/C=C/c2ccc(C(=O)Nc3cc(C(=O)NCCN4CCOCC4)n(C)c3)cc2)c1,inactive
3,CC(C)c1sc(NC(=O)c2cc(NC(=O)c3cc(NC=O)cn3C)cn2C)nc1C(=O)NCCCN(C)C,inactive
4,CC(C)c1sc(NC(=O)c2cc(NC(=O)c3cc(NC(=O)c4cccnc4)cn3C)cn2C)nc1C(=O)NCCCN(C)C,6.1 ×10⁴ /M
